The source of these data is publication PMC9866541, “Flavonoid Derivatives as New Potent Inhibitors of Cysteine Proteases: An Important Step toward the Design of New Compounds for the Treatment of Leishmaniasis” (Microorganisms, 2023).

The subject of data set [1] is Promastigote forms of L. amazonensis. Put plainly: Antipromastigote assay (MTT). The format is cell-based, Leishmania amazonensis. The note with it: for IC50: Leishmania amazonensis, L. amazonensis promastigotes, 72 h, 26 °C, MTT, highest concentration tested 10 µg/mL, read-out: Promastigote IC50; for SI (selectivity index): GL50 in NIH/3T3 cells / IC50 in extracellular promastigotes. As for the experimental part: A standard strain of Leishmania (Leishmania amazonensis) (IFLA/BR/1967/PH8) was used for the evaluation of in vitro antileishmanial activity. The promastigote forms were grown in Schneider’s insect medium (Sigma-Aldrich®, SP/Brazil) supplemented with 20% foetal bovine serum (Sigma-Aldrich®, SP/Brazil), 10,000 U/mL penicillin, and 10 mg/mL streptomycin (Sigma-Aldrich®, SP/Brazil).
Promastigote forms of L. amazonensis in the log growth phase (10^e6 parasites/mL) were added to 96-well plates and incubated in sextuplicate with the test samples (0.25–10.0 µg/mL). The microplates were incubated at 26 °C for 72 h. Cell viability was assessed by adding 5 mg/mL of MTT ([3-(4,5-dimethylthiazol-2-yl)-2,5-diphenyltetrazolium bromide] (Sigma-Aldrich® SP/Brazil). Results were expressed as the half-maximal inhibitory concentration (IC50) calculated by a nonlinear dose–response regression curve using the statistical program GraphPad PRISM 5.0. Pentamidine (Sigma-Aldrich ® SP/Brazil; 0.25–10 µg/mL) was used as a positive control, and pure Schneider culture medium was used as a negative control.

Data set [2] concerns the target T1, rCPB2.8 (Leishmania mexicana, UniProt P36400).
T1 construct: recombinant enzymes (r) lacking the C-terminal region
Put plainly: Determination of IC50 on rCPB2.8 (Z-FR-AMC). The class given is biochemical. As for the experimental part:
Cysteine proteases rCPB2.8, rCPB3, and rH84Y were assayed in 100 mM sodium acetate buffer containing 5 mM EDTA, 100 mM NaCl, 0.01% Triton X-100, and 20% glycerol, at pH 5.5. The enzymes were pre-incubated in the presence of 5 mM DTT for 5 min at 37 °C in a 1 mL final volume with constant stirring. Enzyme activities were monitored using fluorogenic probe Z-FR-AMC (9.25 µM final concentration), and the fluorescence was monitored by spectrofluorometry using fluorometer F2700 (Hitachi, Tokyo, Japan) set to λEx = 360 nm and λEm = 480 nm. The IC50 evaluation was performed using a progressive increase in the concentration of the compounds; the IC50 values were calculated using nonlinear regression, and the data were analysed by Grafit 5.0.13 software using Equation (1). (1) y=100%/1+(x/IC50)^S.

Another data set has as its target rCPB3 (Leishmania mexicana, UniProt P36400, D186N/D189S/N185D, form not given). The data set can be described thus: Enzyme kinetics and mechanism of inhibition of rCPB3. For mechanism: key: NCPC: non-competitive inhibition with positive cooperativity; SLNC: simple linear non-competitive inhibition. The format is biochemical. On the procedure:
(§1) Studies of cysteine proteases rCPB2.8, rCPB3, and rH84Y inhibition kinetics were performed in different concentrations of Z-FR-AMC in the presence and absence of compounds using 100 mM sodium acetate buffer containing 5 mM EDTA, 100 mM NaCl, 0.01% Triton X-100, and 20% glycerol, at pH 5.5. Aliquots of the enzymes were pre-incubated with 5 mM DTT for 5 min at 37 °C. For every kinetic measurement, the compounds were pre-incubated with each enzyme for 10 min before adding the substrate. All kinetic assays were performed in duplicate. Inhibition constants were determined using different equations, depending on the inhibition mechanism. The assumed KM values of rCPB2.8, rCPB3, and rH84Y for Z-FR-AMC were 3.23 µM, 2.99 µM, and 2.80 µM, respectively. The data of the activity rate and substrate concentration generated rectangular hyperbolic profiles that were linearised using the Lineweaver–Burk double-reciprocal plot. The replot profiles of the slope vs. inhibitor and intercept vs. inhibitor provided Ki and αKi parameters, respectively. If the replots present a parabolic profile, the system involves the participation of a second molecule of the compound, which can bind the enzyme complexed to the first compound (EI), forming IEI, and bind to the ESI complex, forming IESI. Linearisation is required, generating the 1/Kslope vs. inhibitor and 1/Kintercept vs. inhibitor replots, according to Equations (2) and (3). (2) 1/Kslope=1/Ki+[I]/βKi2, (3) 1/Kintercept=1/αKi+[I]/αγKi2, where Ki is the inhibitory constant, [I] is the concentration of inhibitor, α is the factor of formation of the ESI complex (enzyme–substrate–inhibitor complex), β is the factor of formation of the IEI complex (inhibitor–enzyme–inhibitor complex), and γ is the factor of formation of the IESI complex (inhibitor–enzyme–substrate–inhibitor complex) according to the general mechanism (Figure 8). Furthermore, β and γ measure the cooperativity between the binding of the first and second inhibitor molecules to form IEI and IESI, respectively.

Data set [3] has as its target T1, rCPB2.8. Put plainly: Enzyme kinetics and mechanism of inhibition of rCPB2.8. For mechanism: key: NCPC: non-competitive inhibition with positive cooperativity; SLNC: simple linear non-competitive inhibition. The format is biochemical. As for the experimental part:
as §1

The next data set addresses rH84Y (Leishmania mexicana, UniProt P36400, D186N/D189S/H209Y/N185D, form not given). Put plainly: Enzyme kinetics and mechanism of inhibition of rH84Y. For mechanism: key: NCPC: non-competitive inhibition with positive cooperativity; SLNC: simple linear non-competitive inhibition. The format is biochemical. On the procedure: as §1
A further data set deals with NIH/3T3 fibroblasts. The data set can be described thus: Cytotoxicity on mammalian cells (sulphorhodamine B). The class given is cell-based. The following applies: for NIH/3T3 Cells GL50: 48 h, concentration that inhibited cell growth by 50%. On the procedure:
The cytotoxic effect of the test samples was evaluated on NIH/3T3 fibroblasts, obtained from the Rio de Janeiro Cell Bank (Brazil). Cells were seeded in 96-well plates ([…]). After 24 h of fixation, cells were incubated for 48 h with test samples at 0.25–250 µg/mL, in triplicate. […] Doxorubicin (0.025–25 µg/mL was used as a positive control. Cells were fixed by adding 20% trichloroacetic acid and were subsequently stained with sulphorhodamine B (0.1%) diluted in acetic acid after 48 h of exposure. Absorbance values were read on the PT-READER microplate instrument (Thermoplate®), and growth percentages were calculated according to procedures in the literature. Cytotoxicity activity was expressed as the concentration of drug that inhibited cell growth by 50% (GL50), and growth was determined by nonlinear regression using Origin 6.0 software (OriginLab). The statistical significance was analysed using an unpaired Student’s t-test or a one-way analysis of variance. A p-value < 0.05 was considered statistically relevant. In addition, the SI was calculated using the ratio between cytotoxicity in NHI-3T3 cells (GL50) and activity in the parasite forms (IC50).

Setting [4] is: factor of formation of the ESI complex.

T1 sequence (P36400 126-343): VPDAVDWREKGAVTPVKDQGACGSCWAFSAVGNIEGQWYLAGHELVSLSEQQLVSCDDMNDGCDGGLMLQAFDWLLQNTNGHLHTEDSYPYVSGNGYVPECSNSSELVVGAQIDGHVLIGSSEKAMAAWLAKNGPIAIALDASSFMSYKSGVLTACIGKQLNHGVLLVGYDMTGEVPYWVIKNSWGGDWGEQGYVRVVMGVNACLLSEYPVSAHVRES
rCPB3, sequence (P36400 126-343 D186N/D189S/N185D): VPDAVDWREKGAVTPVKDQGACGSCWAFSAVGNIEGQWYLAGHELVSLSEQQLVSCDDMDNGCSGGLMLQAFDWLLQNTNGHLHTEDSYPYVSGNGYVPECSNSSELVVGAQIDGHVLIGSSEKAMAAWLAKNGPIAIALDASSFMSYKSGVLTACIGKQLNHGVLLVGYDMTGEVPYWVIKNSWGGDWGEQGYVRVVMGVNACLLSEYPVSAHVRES
rH84Y, sequence (P36400 126-343 D186N/D189S/H209Y/N185D): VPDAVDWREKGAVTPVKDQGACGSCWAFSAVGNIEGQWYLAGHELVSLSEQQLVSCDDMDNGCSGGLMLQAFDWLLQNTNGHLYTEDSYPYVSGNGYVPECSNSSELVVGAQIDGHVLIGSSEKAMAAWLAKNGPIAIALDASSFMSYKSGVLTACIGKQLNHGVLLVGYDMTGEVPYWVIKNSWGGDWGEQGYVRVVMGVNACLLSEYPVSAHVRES

In the case of `COc1ccc(-c2oc3ccccc3c(=O)c2O)cc1` [f12a, 3-hydroxy-2-(4-methoxyphenyl)-4H-chromen-4-one], the 50% inhibitory concentration (IC50) – broadly, the point on the concentration scale where inhibition reaches its midpoint – in data set [1] is over 10 µg/mL; on rCPB2.8 [2] it was 4.72 ± 0.38 µM. For the same compound, the Mechanism entry on rCPB3 is on record as “SLNC”; on rCPB2.8 [3] it was “NCPC”; at rH84Y, “SLNC”. For the same compound, the αKi on rCPB3 is recorded as 7.50 ± 0.66 µM; on rCPB2.8 [3], 10.7 ± 1.1 µM; at rH84Y, 11.2 ± 0.5 µM. Moreover, the α at rCPB3 (setting [4]), at rCPB2.8 [3] (setting [4]) and at rH84Y (setting [4]) was 1 in each case. The “Formation of IESI favoured by binding of the first molecule” value on rCPB2.8 [3] was 50 fold. In addition, the Ki (usually a measure of affinity in units of concentration, obtained from inhibition or displacement) stood at 12.4 ± 1.4 µM on rCPB2.8 [3] (Ki), 3.65 ± 0.39 µM on rCPB2.8 [3] (βKi) and 0.25 ± 0.03 µM on rCPB2.8 [3] (γKi). In addition, the β on rCPB2.8 [3] (factor of formation of the IEI complex) is on record as 0.29. Besides, on rCPB2.8 [3] (factor of formation of the IESI complex), the γ is 0.02. Further, in the data set with NIH/3T3 fibroblasts, the “NIH/3T3 Cells GL50” value is over 931.93 µM.

For `COc1ccc(/C=C/C(=O)c2cc(Cl)ccc2O)cc1` [Compound 3a, (E)-1-(5-chloro-2-hydroxyphenyl)-3-(4-methoxyphenyl)prop-2-en-1-one], in data set [1], the “SI (selectivity index)” value is given as over 1443.10 and the IC50 was 0.6 µM. At rCPB2.8 [2], this compound gave a concentration for half-maximal inhibition (IC50) of 7.11 ± 0.32 µM. The “NIH/3T3 Cells GL50” value with NIH/3T3 fibroblasts is on record as over 865.86 µM. Besides, in the data set on NIH/3T3 fibroblasts (NIH/3T3 cells), the “Cytotoxicity against mammal cells (in words)” value is “noncytotoxic”.

In the case of `O=C(/C=C/c1ccc2c(c1)OCO2)c1cc(Cl)ccc1O` [Compound 3b, (E)-3-(benzo[d][1, 3]dioxol-5-yl)-1-(5-chloro-2-hydroxyphenyl)prop-2-en-1-one], the “SI (selectivity index)” value in data set [1] is on record as 61.59. The IC50 is 0.96 µM in data set [1] and 18.4 ± 1.22 µM against rCPB2.8 [2]. Moreover, the “NIH/3T3 Cells GL50” value in the data set on NIH/3T3 fibroblasts amounted to 59.13 µM.

As to `O=C(/C=C/c1ccc2c(c1)OCO2)c1cc(F)ccc1O` [Compound 4b, (E)-3-(benzo[d][1, 3]dioxol-5-yl)-1-(5-fluoro-2-hydroxyphenyl)prop-2-en-1-one], the 50% inhibitory concentration (IC50) in data set [1] was determined as 1.95 µM; against rCPB2.8 [2] it was 6.61 ± 0.41 µM. Moreover, the “NIH/3T3 Cells GL50” value with NIH/3T3 fibroblasts was over 873.36 µM.

For the compound `O=C(/C=C/c1ccc2c(c1)OCO2)c1ccc(Cl)cc1` [Compound 1b, (E)-3-(benzo[d][1, 3]dioxol-5-yl)-1-(4-chlorophenyl)prop-2-en-1-one], the half-inhibitory concentration (IC50) is over 10 µg/mL in data set [1] and 7.42 ± 0.25 µM on rCPB2.8 [2]. Also, in the data set on NIH/3T3 fibroblasts, the “NIH/3T3 Cells GL50” value came to 811.27 µM.

For `CN(C)c1ccc(-c2oc3ccc(Cl)cc3c(=O)c2O)cc1` [f13c, 6-chloro-2-(4-(dimethylamino)phenyl)-3-hydroxy-4H-chromen-4-one], the 50% inhibitory concentration (IC50) in data set [1] was over 10 µg/mL; on rCPB2.8 [2], 14.2 ± 0.65 µM. In addition, the “NIH/3T3 Cells GL50” value with NIH/3T3 fibroblasts is on record as over 791.76 µM.

For the compound `COc1ccc(-c2oc3ccc(Cl)cc3c(=O)c2O)cc1` [f13a, 6-chloro-3-hydroxy-2-(4-methoxyphenyl)-4H-chromen-4-one], in data set [1], the “SI (selectivity index)” value is over 764.70 and the IC50 came to 1.08 µM. Moreover, it took 1.88 ± 0.07 µM to reach half-maximal inhibition at rCPB2.8 [2] (IC50). Further, the “NIH/3T3 Cells GL50” value in the data set on NIH/3T3 fibroblasts is on record as over 825.87 µM.

For `COc1cccc2c1C(=O)c1c(O)c3c(c(O)c1C2=O)C[C@@](O)(C(=O)CO)C[C@@H]3O[C@H]1C[C@H](N)[C@H](O)[C@H](C)O1` [Doxorubicin, reference compound], the “NIH/3T3 Cells GL50” value in the data set with NIH/3T3 fibroblasts was found to be 0.05 µM.

Turning to `COc1ccc(/C=C/C(=O)c2ccccc2O)cc1` [Compound 2a, (E)-1-(2-hydroxyphenyl)-3-(4-methoxyphenyl)prop-2-en-1-one], the “SI (selectivity index)” value in data set [1] amounted to 1324. Besides, the figures for the half-inhibitory concentration (IC50) (in data set [1]; at rCPB2.8 [2]) were 0.71 µM and 2.35 ± 0.19 µM, respectively. Besides, the “NIH/3T3 Cells GL50” value in the data set with NIH/3T3 fibroblasts is on record as 940.14 µM.

For `CN(C)c1ccc(-c2oc3ccccc3c(=O)c2O)cc1` [f12c, 2-(4-(dimethylamino)phenyl)-3-hydroxy-4H-chromen-4-one], in data set [1], the “SI (selectivity index)” value was determined as 1039.90. For the same compound, the concentration for half-maximal inhibition (IC50) stood at 0.73 µM in data set [1] and 10.3 ± 0.39 µM at rCPB2.8 [2]. In the data set on NIH/3T3 fibroblasts, the “NIH/3T3 Cells GL50” value turned out to be 759.13 µM.

`C[C@@H]1[C@H](O)[C@@H](C)/C=C/C=C/C=C/C=C/C=C/C=C/C=C/[C@H](O[C@@H]2O[C@H](C)[C@@H](O)[C@H](N)[C@@H]2O)C[C@@H]2O[C@](O)(C[C@@H](O)C[C@@H](O)[C@H](O)CC[C@@H](O)C[C@@H](O)CC(=O)O[C@H]1C)C[C@H](O)[C@H]2C(=O)O` [Amphotericin B, reference compound]: in data set [1], the IC50 is 0.1 µM.

Consider `O=C(/C=C/c1ccc2c(c1)OCO2)c1ccccc1O` [Compound 2b, (E)-3-(benzo[d][1, 3]dioxol-5-yl)-1-(2-hydroxyphenyl)prop-2-en-1-one], for which the IC50 in data set [1] is over 10 µg/mL; at rCPB2.8 [2], 20.6 ± 1.06 µM. Further, the “Times less efficient in inhibiting rCPB2.8 than compound 2a” value on rCPB2.8 [2] (ratio of IC50 values) is on record as 8.78 times. Besides, the “NIH/3T3 Cells GL50” value in the data set with NIH/3T3 fibroblasts was found to be 910.58 µM.

As for `N=C(N)c1ccc(OCCCCCOc2ccc(C(=N)N)cc2)cc1` [Pentamidine, reference compound], the 50% inhibitory concentration (IC50) in data set [1] was determined as 0.8 µM.

As for `COc1ccc(/C=C/C(=O)c2cc(F)ccc2O)cc1` [Compound 4a, (E)-1-(5-fluoro-2-hydroxyphenyl)-3-(4-methoxyphenyl)prop-2-en-1-one], the IC50 was over 10 µg/mL in data set [1] and 3.35 ± 0.17 µM on rCPB2.8 [2]. In the data set with NIH/3T3 fibroblasts, the “NIH/3T3 Cells GL50” value was 901.09 µM.
